Earlier results as cited in patent US20250288540A1, “METHODS AND COMPOSITIONS FOR PAIN MANAGEMENT” (SILO PHARMA, INC., priority 2024, published 2025).

Tests used:
[1] = system: halothane requirements (MAC); details: rat
[2] = system: N-methyl-D-aspartate (NMDA) receptor

Row | Compound | solubility in ethanol (ethanol) | solubility in ether (ether) | solubility in methanol (methanol) | activity relative to ketamine in reducing halothane requirements (MAC) [1] | affinity at the NMDA receptor compared with ketamine [2]
1 | CNC1(c2ccccc2Cl)CCCCC1=O.Cl (centres unmarked) [Ketamine hydrochloride, 2-(2-chlorophenyl)-2-(methylamino) cyclohexan-1-one hydrochloride] | ~750 mg/mL | practically insoluble | freely soluble | – | –
2 | NC1(c2ccccc2Cl)CCCCC1=O (centres unmarked) [Norketamine] | – | – | – | about ⅓ | less affinity
